Values quoted from earlier work as cited in publication PMC7693160 (Pharmaceutics, 2020).

What was measured:
Design in all cases: method as in Kumar et al. 43
Conditions in all cases: ref Kumar et al. 43, read-out: Perpetrator in vitro Ki; cited from earlier work
CYP2C9 1*/3* = tested on: CYP2C9 1*/3*
CYP2C9 3*/3* = tested on: CYP2C9 3*/3*
CYP2C9 1*/1* = tested on: CYP2C9 1*/1*

OC(Cn1cncn1)(Cn1cncn1)c1ccc(F)cc1F [Fluconazole, fluconazole]
Ki (CYP2C9 1*/3*): 17 µM | Ki (CYP2C9 3*/3*): 23 µM | Ki (CYP2C9 1*/1*): 11 µM
